Measurements as given in patent US9067894B1, “Compound, composition, and method of activating GIRK potassium channel and use of same for treating conditions of interest” (Vanderbilt University, priority 2013, dated 2015).
In brackets after ≈: the same amount, converted by molar mass. Entries after “also recorded” stand apart in the source; their conditions may differ.

Legend:
Dopamine D3 = biological target: T1, Dopamine D3 (Homo sapiens, UniProt P35462); test: Radioligand displacement (Ricerca); type: binding
T1 construct: Ricerca

Neuropeptide Y (Y2) = biological target: T2, Neuropeptide Y (Y2) (Homo sapiens, UniProt P49146); test: Radioligand displacement (Ricerca); type: binding
T2 construct: Ricerca (contract laboratory that ran the panel)
T2 sequence (P49146 whole entry): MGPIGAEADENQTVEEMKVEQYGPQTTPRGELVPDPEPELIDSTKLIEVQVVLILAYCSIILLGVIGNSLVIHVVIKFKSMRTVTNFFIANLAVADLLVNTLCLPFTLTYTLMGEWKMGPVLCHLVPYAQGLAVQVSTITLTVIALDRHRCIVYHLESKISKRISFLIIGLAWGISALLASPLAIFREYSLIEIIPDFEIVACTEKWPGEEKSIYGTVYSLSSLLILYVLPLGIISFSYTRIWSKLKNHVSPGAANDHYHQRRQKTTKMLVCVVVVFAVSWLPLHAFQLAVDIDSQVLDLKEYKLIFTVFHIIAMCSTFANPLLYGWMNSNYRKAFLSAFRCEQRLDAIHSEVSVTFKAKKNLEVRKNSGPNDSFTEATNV

Serotonin 5-HT2B = biological target: T3, Serotonin 5-HT2B (Homo sapiens, UniProt P41595); test: Radioligand displacement (Ricerca); type: binding
T3 construct: Ricerca (contract panel)
T3 sequence (P41595 whole entry): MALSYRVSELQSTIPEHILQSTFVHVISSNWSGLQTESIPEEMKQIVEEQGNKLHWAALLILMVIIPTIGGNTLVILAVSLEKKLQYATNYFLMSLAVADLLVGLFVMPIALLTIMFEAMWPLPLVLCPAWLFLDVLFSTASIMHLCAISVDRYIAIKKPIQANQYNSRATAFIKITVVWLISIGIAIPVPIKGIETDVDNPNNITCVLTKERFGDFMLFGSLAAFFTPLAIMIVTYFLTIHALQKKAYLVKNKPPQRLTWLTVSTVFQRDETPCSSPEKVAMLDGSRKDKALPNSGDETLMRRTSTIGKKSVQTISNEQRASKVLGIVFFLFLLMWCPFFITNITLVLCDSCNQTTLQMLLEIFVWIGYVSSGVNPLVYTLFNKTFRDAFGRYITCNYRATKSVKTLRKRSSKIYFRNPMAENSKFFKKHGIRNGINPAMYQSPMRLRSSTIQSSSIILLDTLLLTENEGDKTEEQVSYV

Muscarinic M2 = biological target: T4, Muscarinic M2 (Homo sapiens, UniProt P08172); test: Radioligand displacement (Ricerca); type: binding
T4 construct: Ricerca (contract laboratory that ran the panel)
T4 sequence (P08172 whole entry): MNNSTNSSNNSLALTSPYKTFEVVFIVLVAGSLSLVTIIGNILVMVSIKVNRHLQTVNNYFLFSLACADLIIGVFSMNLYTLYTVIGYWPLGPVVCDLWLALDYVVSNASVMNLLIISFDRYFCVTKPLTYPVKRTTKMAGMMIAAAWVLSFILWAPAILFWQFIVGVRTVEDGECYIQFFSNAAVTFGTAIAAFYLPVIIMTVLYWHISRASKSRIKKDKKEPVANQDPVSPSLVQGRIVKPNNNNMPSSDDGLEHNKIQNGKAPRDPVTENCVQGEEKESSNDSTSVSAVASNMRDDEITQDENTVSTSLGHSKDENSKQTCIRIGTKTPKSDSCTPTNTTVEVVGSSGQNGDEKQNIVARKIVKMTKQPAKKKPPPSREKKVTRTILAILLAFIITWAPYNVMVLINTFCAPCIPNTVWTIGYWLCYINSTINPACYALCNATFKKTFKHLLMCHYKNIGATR

Adenosine A3 = biological target: T5, Adenosine A3 (Homo sapiens, UniProt P0DMS8); test: Radioligand displacement (Ricerca); type: binding
T5 construct: Ricerca (contract assay)
T5 sequence (P0DMS8 whole entry): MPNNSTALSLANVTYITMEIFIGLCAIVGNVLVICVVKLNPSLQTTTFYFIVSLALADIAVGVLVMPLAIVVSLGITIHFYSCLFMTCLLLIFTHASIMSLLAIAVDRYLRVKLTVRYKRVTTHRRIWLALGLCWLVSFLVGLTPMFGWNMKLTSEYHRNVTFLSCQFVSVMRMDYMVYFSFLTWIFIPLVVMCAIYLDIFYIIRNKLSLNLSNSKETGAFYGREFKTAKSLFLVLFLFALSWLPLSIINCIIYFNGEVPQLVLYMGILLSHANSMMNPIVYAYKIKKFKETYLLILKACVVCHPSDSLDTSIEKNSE

Andreogen = biological target: T6, Andreogen (Rattus norvegicus, UniProt P15207); test: Radioligand displacement (Ricerca); type: binding
T6 construct: Ricerca
T6 sequence (P15207 whole entry S389L): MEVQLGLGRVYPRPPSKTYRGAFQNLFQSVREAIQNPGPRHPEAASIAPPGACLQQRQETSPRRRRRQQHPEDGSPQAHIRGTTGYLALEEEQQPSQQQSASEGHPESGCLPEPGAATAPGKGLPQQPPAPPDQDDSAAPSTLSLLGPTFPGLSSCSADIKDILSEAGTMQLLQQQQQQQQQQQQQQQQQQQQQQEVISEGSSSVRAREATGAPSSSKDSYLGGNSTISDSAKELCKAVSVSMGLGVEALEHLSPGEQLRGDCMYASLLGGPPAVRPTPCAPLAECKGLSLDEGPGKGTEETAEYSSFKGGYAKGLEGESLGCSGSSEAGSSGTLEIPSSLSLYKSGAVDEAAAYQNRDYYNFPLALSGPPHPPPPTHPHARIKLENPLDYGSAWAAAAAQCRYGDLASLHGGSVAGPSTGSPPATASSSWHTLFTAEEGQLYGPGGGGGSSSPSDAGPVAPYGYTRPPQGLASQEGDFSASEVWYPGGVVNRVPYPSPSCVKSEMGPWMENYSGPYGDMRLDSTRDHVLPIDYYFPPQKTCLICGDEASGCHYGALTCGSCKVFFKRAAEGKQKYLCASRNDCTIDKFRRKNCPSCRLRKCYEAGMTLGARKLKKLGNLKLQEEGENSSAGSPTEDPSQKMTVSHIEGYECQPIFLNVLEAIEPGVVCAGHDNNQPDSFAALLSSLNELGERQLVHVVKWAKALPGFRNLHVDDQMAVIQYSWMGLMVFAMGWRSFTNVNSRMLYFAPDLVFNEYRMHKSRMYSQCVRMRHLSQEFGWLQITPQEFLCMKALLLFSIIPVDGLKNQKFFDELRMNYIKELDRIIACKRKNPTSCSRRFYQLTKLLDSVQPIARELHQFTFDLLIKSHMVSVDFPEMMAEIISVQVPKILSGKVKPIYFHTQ

Dopamine D4.2 = biological target: T7, Dopamine D4.2 (Homo sapiens, UniProt P21917, DEL265-296); test: Radioligand displacement (Ricerca); type: binding
T7 construct: Ricerca

[1] = biological target: T8, GABAA receptors (α1, β2, γ2 subunit combination) (Homo sapiens, UniProt P14867+P18507+P47870); test: Whole-cell voltage-clamp on GABAA receptors transiently transfected in HEK-293 cells; type: cell-based; details: activation or potentiation of GABA-evoked currents
T8 construct: expressed in transfected cells; host or cells: HEK-293 (transient)
T8 sequence (P14867 28-456): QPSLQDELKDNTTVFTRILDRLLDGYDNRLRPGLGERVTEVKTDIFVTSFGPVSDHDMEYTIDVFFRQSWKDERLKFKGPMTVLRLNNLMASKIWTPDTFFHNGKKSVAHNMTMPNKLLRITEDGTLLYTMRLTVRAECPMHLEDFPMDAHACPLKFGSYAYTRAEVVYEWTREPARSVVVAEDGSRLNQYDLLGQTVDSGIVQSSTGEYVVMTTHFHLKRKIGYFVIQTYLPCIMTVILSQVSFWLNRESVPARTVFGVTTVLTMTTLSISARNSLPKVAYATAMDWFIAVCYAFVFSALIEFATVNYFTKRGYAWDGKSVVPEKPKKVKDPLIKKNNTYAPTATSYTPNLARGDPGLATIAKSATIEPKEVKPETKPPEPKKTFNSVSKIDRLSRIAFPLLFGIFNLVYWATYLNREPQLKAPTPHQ
T8 sequence (P47870 25-512 limits assumed): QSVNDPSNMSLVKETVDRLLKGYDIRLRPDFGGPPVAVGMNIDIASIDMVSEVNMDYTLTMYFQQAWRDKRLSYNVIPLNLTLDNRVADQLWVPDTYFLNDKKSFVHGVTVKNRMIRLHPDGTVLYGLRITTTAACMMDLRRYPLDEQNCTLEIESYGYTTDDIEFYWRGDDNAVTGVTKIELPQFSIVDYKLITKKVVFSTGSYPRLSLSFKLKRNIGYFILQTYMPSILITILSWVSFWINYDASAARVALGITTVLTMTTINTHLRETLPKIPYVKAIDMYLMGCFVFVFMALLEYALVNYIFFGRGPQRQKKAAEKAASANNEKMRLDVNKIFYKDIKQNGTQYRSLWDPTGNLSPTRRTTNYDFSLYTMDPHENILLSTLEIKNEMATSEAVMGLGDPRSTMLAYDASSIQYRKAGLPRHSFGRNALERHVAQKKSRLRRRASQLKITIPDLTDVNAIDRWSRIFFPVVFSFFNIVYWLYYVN
T8 sequence (P18507 40-475): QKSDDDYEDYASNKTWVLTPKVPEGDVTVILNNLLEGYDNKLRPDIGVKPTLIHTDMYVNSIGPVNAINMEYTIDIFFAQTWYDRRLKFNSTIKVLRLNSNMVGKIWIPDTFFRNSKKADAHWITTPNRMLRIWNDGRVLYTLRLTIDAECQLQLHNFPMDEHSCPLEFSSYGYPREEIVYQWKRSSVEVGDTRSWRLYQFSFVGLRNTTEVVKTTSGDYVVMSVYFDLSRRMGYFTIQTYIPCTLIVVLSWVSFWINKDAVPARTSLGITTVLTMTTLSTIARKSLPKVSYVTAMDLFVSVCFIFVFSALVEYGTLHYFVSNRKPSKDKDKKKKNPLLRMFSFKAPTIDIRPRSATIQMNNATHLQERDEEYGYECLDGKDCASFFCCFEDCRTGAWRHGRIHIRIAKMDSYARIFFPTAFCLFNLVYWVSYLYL
Method: A single-cell suspension of HEK-293 cells stably transfected with the appropriate ion channels were plated into TC-treated 35 mm polystyrene dishes at ˜15% confluence and incubated overnight in a 5% CO2 cell culture incubator at 37° C. Whole-cell patch-clamp recordings were performed 24-72 h after plating. Borosilicate glass electrodes ([…] resistance) were filled with Intracellular Solution (130 mM KCl, 20 mM NaCl, 5 mM EGTA, 5.46 mM MgCl2, and 10 mM HEPES, pH 7.4). Whole cell currents were recorded in 20K extracellular solution at −70 mV using a Pico 1 amplifier (Tecella, Foothill Ranch, Calif.) controlled by WINWCP 4.X (University of Strathclyde, Glasgow, Scotland, UK). Signals were compensated for electrode capacitance, cellular capacitance and series resistance. Signals were filtered at 1 kHz, and digitized at 5 kHz. Solutions were applied to the cell with a Valvelink 8.2 (Automate Scientific, Berkeley, Calif.) rapid, valve-controlled perfusion system with in-house-made local superfusion manifold. […] One day after transfection, cells were plate into 35 mm polystyrene dishes, incubated and recorded as described above. […]
Voltage-clamp data were analyzed by converting current amplitudes to current density by dividing by each cell's membrane capacitance estimated from capacitance compensation. […]

[2] = Plasma protein binding, equilibrium dialysis; type: in vitro ADME, mouse; details: murine plasma
Method: Plasma Protein Binding. […] Briefly plasma (220 μL) was added to the 96-well plate containing test article (5 μL) and mixed thoroughly. Subsequently, 200 μl of the plasma-test article mixture was transferred to the cis chamber (red) of the RED plate, with an accompanying 350 μL of phosphate buffer (25 mM, pH 7.4) in the trans chamber. The RED plate was sealed and incubated 4 h at 37° C. with shaking. At completion, 50 μL aliquots from each chamber were diluted 1:1 (50 μL) with either plasma (cis) or buffer (trans) and transferred to a new 96-well plate, at which time ice-cold acetonitrile (2 volumes) was added to extract the matrices. The plate was centrifuged (3000 rcf, 10 min) and supernatant solutions transferred to a new 96-well plate. The sealed plate was stored at −20° C. until LC/MS/MS analysis.
Liquid Chromatography/Mass Spectrometry Analysis. In vitro experiments. VU0456810 was analyzed on a Thermo Electron TSQ Quantum Ultra triple quad mass spectrometer (San Jose, Calif.) via electrospray ionization (ESI) with two Themo Electron Accella pumps (San Jose, Calif.), and a Leap Technologies CTC PAL autosampler (Carrboro, N.C.). Analytes were separated by gradient elution on a dual column system with two Thermo Hypersil Gold (2.1×30 mm, 1.9 μm) columns (San Jose, Calif.) at 40° C. HPLC mobile phase A was 0.1% formic acid in water and mobile phase B was 0.1% formic acid in acetonitrile. […]

Rolipram (PDE4) = test: Radioligand displacement (Ricerca); type: binding, human; details: 10 μM
Endothelin ETB = biological target: T9, Endothelin ETB (Homo sapiens, UniProt P24530); test: Radioligand displacement (Ricerca); type: binding
T9 construct: Ricerca
T9 sequence (P24530 27-442): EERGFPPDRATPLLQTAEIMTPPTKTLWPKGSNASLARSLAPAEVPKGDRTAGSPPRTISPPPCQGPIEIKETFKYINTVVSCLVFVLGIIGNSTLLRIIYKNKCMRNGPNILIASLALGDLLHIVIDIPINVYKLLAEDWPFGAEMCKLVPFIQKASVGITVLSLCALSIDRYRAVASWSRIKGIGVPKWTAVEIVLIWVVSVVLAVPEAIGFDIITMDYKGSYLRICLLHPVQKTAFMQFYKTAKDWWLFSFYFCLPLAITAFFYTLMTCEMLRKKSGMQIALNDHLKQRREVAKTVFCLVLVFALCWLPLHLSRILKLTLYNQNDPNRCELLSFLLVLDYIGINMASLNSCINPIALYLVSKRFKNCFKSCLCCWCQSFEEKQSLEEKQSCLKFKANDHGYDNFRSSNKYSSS

Transporter, SERT = biological target: T10, Transporter, SERT (Homo sapiens, UniProt P31645); test: Radioligand displacement (Ricerca); type: binding
T10 construct: Ricerca (contract panel)
T10 sequence (P31645 whole entry): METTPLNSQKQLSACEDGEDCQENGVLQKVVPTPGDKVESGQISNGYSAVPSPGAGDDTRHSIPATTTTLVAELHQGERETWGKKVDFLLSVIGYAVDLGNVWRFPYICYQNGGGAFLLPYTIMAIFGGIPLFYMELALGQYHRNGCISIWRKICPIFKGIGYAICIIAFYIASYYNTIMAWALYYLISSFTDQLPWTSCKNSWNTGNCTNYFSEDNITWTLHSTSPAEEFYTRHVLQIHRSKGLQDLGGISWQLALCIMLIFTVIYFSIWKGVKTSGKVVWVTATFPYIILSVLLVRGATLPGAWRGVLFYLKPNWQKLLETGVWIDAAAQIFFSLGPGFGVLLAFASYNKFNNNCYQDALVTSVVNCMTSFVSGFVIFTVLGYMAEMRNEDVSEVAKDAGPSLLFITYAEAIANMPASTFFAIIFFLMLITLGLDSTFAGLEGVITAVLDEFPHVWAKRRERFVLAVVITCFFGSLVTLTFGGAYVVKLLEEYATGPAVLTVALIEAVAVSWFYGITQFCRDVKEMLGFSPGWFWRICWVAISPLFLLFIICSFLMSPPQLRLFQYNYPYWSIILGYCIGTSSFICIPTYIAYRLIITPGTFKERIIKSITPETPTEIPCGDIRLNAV

Solubility = type: physicochemical
[3] = Maximal electroshock (MES) model of epilepsy; type: in vivo, mouse; details: mice, i.p.; VU0456810 60 mg/kg, sodium valproate 150 mg/kg; vs vehicle
Method: MES stimulation was applied, 30 minutes after injection, through transauricular (ear-clip) electrodes from an electroshock apparatus, HSE Shock Stimulator Type 221, (Harvard Apparatus, Holliston, Mass.) using the following parameters: 100-mA fixed current, a 50-60-Hz pulse frequency, a 0.6-ms pulse width and a 0.3-s stimulus duration. Animals were restrained by hand when applying the electrodes and released at the moment of stimulation to permit observation of the seizure throughout its entire course. Upon completion of the electrical stimulus, the amount of time until death was recorded. […] In this modified MES test, the electrical stimulus that was applied was sufficient to induce seizures and death from maximal seizure in 100% of the control mice.
In all cases, experiments were conducted in a blind manner with respect to the experimenters. Data were evaluated in Excel using one-tailed, unpaired Student's t-test, assuming populations with unequal variance.

Prostanoid EP4 = biological target: T11, Prostanoid EP4 (Homo sapiens, UniProt P35408); test: Radioligand displacement (Ricerca); type: binding
T11 construct: Ricerca (contract laboratory that ran the panel)

PAF = biological target: T12, PAF (Homo sapiens, UniProt P25105); test: Radioligand displacement (Ricerca); type: binding
T12 construct: Ricerca (contract laboratory that ran the panel)

SMILES: Cc1cc(NC(=O)Nc2ccc(F)c(F)c2)n(-c2ccccc2)n1 [VU0456810, 1-(3,4-difluorophenyl)-3-(3-methyl-1-phenyl-1H-pyrazol-5-yl)urea]
- inhibition at 10 µM (Dopamine D3): 2%
- inhibition at 10 µM (Neuropeptide Y (Y2)): -5%
- inhibition at 10 µM (Serotonin 5-HT2B): < 50%
- % Inhibition (Serotonin 5-HT2B; 10 μM): 46%
- inhibition at 10 µM (Muscarinic M2): -17%
- inhibition at 10 µM (Adenosine A3): 8%
- inhibition at 10 µM (Andreogen): 0%
- inhibition at 10 µM (Dopamine D4.2): 4%
- Potency [1]: failed to show any activation or potentiation; also recorded: Inactive
- Plasma Protein Binding [2]: 3 % fu
- % Inhibition (Rolipram (PDE4)): 11%
- inhibition at 10 µM (Endothelin ETB): 3%
- inhibition at 10 µM (Transporter, SERT): -1%
- solubility (Solubility): 17.5 µM (≈ 5.75 µg/mL)
- latency of seizure onset [3]: robust increase; also recorded: highly significant delays in seizure onset
- inhibition at 10 µM (Prostanoid EP4): -4%
- inhibition at 10 µM (PAF): 2%
